Counter-ions that a name gives are not always drawn.
System: CiA:Oct4 N118/N163 cells
Experiment: Minus rapamycin counter screen for toxicity and cell differentiation
Assay type: cell-based
Details: 10 μM compound, no rapamycin, 48 hrs
Experimental: Day 0, CiA:Oct4 N118/163 cells were grown in ES media and seeded at a density of 10,000 cells per well (100,000 cells/mL) into gelatin coated 96 well plates. Day 1, media was aspirated and replaced with […] fresh ES media containing +/−6 nM rapamycin and 10 μM dilution of compounds from the EpiG compound set. Day 2, 100 μL fresh ES media containing +/−6 nM rapamycin and 10 μM dilution of compounds from the EpiG compound set was added as on Day 1. Day 3, the media was aspirated out of the wells and the cells were washed with PBS and trypsinized using 0.25% trypsin-EDTA. Trypsin was quenched with serum. Cells were resuspended by pipetting to prepare the plates for flow cytometry analysis.
Flow cytometry was performed using an Intellicyt iQue Screener and analyzed with FlowJo software. Cell populations were gated based on forward and side scatter area. Single cell populations were isolated using forward scatter area by forward scatter height gating. Dead or dying cells that equally fluoresced in the GFP and APC channels upon excitation with 488 nm laser were omitted as autofluorescent, and the remaining cells were gated into GFP (−) and GFP (+) populations. […] Statistics were performed using standard T-test analysis.
The CiA:Oct4 N118/N163 recruitment system also functions as an internal counter screen for toxicity and cell differentiation in the absence of rapamycin recruited csHP1α. […]

COc1cc2nc(N3CCCC3)nc(N[C@H]3CCCNC3)c2cc1OC [compound 1, (S)-6,7-Dimethoxy-N-(Piperidin-3-yl)-2-(Pyrrolidin-1-yl)Quinazolin-4-Amine Trifluoroacetic Acid Salt]
GFP positive population levels without csHP1α recruitment: did not decrease GFP positive population levels

Source: patent US11254654B2, “Heterochromatin gene repression inhibitors” (The University of North Carolina at Chapel Hill, priority 2017, dated 2022)
